Data reported in article PMC7615677 (Science translational medicine, 2023).
Read-outs that look alike come from different tables or passages of the source.

Tests used:
[1] = test system: L. donovani promastigote cultures; experiment: microbe, parasite or virus in culture; assay type: cell-based; settings: Leishmania donovani
Description: The clonal L. donovani cell line LdBOB (derived from MHOM/SD/62/1S-CL2D) was grown as promastigotes at 28°C and as axenic amastigotes at 37°C, as described previously ([25]).
To examine the effects of test compounds on growth in 96-well plates, promastigote or axenic amastigote cultures seeded at 5 × 10^4 parasites mL^–1 were incubated in the presence of 2-fold serial dilutions of test compounds for 72 h. Following incubation, 50 μM resazurin was added to each well and fluorescence (excitation of 528 nm and emission of 590 nm) measured after a further 3 h incubation.
Starting at sublethal concentrations, drug concentrations in 5 independent cultures were increased in a stepwise manner, usually by 2-fold. […] Five clones (Res 1–5) were selected for further biological study.

[2] = In vitro cytotoxicity assay; assay type: cell-based; settings: rat, L-6 rat skeletal myoblasts
[3] = In vitro metabolism, liver microsomes; assay type: in vitro ADME; settings: Rat
Description: Compounds were spiked into microsomal matrix prepared in 0.1 M pH 7.4 phosphate buffer containing magnesium chloride (final concentration of 3.3 mM), equilibrated for 5-10 min at 37°C. The reaction was initiated with the addition of freshly prepared solution of NADPH (final 1.3 mM). Control samples without co-factor were included for comparison. Aliquots of the reaction mixtures were taken periodically over 60 min and quenched with acetonitrile containing internal standards (metolazone and diazepam). Quenched samples were maintained on ice for approximately 20-30 min, centrifuged (for 5 min) and the supernatant was analyzed by LC-MS.
In vitro intrinsic clearance (CLint, μL/min/mg or μL/min/10^6 cells) values were calculated from the apparent first order degradation rate constant divided by the microsome concentration or the hepatocyte cell number (10^6 viable cells/mL). In vitro CLint values were then divided by the fraction unbound in the in vitro test system (to give CLint,u) and scaled to in vivo values (mL/min/kg) using published physiological scaling factors ([28]). Blood clearance in each species was then calculated using the well-stirred model of hepatic extraction (equation 2) where Q is the hepatic blood flow and fu,blood is calculated from fu,plasma/B:P: [2] PredictedCLblood=Q x fu,blood x CLint,u/Q+fu,blood x CLint,u […]

[4] = test system: T. brucei brucei (bloodstream form); experiment: In vitro activity against other kinetoplastid parasites; assay type: cell-based; settings: Trypanosoma brucei, one range given for T. brucei brucei and T. b. rhodesiense
[5] = Compartmental PK modelling and repeat-dose simulation; set-up: species or system hamsters
Description: To support pharmacokinetic/pharmacodynamic (PKPD) analysis, data in mice and hamsters were also analyzed by compartmental modeling using Phoenix WinNonlin (version 8.2; Certara, Princeton, NJ). For each dose level, an extravascular dosing, single compartment disposition model was fit to the combined Day 1/Day 5 repeat dose plasma data. The model was parameterized with a single volume term (V/F), and with first order absorption (K01) and elimination (K10) rate constants. Initial values for the parameter estimates were obtained by fitting of the model to the Day 1 data at the lowest dose level only, and the same initial values were used across the dose range. Experimental data used in model fitting were the mean concentration-time profiles and the average dose administered to each group. The weighting scheme (1/Y2 for mouse and 1/Y for hamster) was selected based on goodness of fit of the peak region of the experimental profiles. Parameter estimates obtained through fitting were used to simulate full repeat-dose plasma concentration-time profiles with both once-daily and twice-daily (dosing at […]) administration at each dose level and treatment duration used in the efficacy studies.

[6] = test system: L5178Y mouse lymphoma cells; experiment: In vitro mutation assay at the TK locus; assay type: cell-based; settings: absence or presence of rat liver S9
Description: Two independent mutation tests were carried out: one in which cells were treated for 3 h in the presence of rat liver S9 mix and with […] as a positive control, and a second treated for 24 h in the absence of S9 mix and with […] as a positive control. In both cases, DMSO was used as the negative control. In accordance with current guidelines ICH S2(R1), 2011 ([41]) mutant frequency was counted at concentrations where solubility was not a limiting factor and cytotoxicity was not observed.

[7] = hamster, plasma, po, Hamsters, 12.5 mg/kg, fitted
[8] = hamster, plasma, po, Hamsters, 25 mg/kg, fitted
[9] = hamster, plasma, po, Hamsters, 50 mg/kg, fitted
[10] = hamsters, 3.125 mg/kg bid, 5 days, simulated
[11] = hamsters, 12.5 mg/kg bid, 5 days, simulated
[12] = hamsters, 12.5 mg/kg qd, 5 days, simulated
[13] = hamsters, 25 mg/kg qd, 5 days, simulated
[14] = hamsters, 50 mg/kg qd, 5 days, simulated

Structure (SMILES): Cc1[nH]c2nc(N)nc(C)c2c1-c1ccc(C#N)c2c1OCO2 [DNDI-6174]
- EC50 ([1]; DDD01716002 Res 1, read-out: EC50 (representative curve, Fig. 2A)): 1276 ± 2 nM
- EC50 ([1]; WT, read-out: EC50 (representative curve, Fig. 2A)): 22 ± 2 nM
- EC50 ([1]; Wild-type promastigotes, read-out: EC50 values): 24 ± 1 nM
- EC50 ([1]; read-out: EC50 values, DDD01716002 Res 1 (S207P)): 779 ± 98 nM
- EC50 ([1]; read-out: EC50 values, DDD01716002 Res 2 (G31A)): 829 ± 63 nM
- EC50 ([1]; read-out: EC50 values, DDD01716002 Res 3 (F227I)): 84 ± 3 nM
- EC50 ([1]; read-out: EC50 values, DNDI-6174 Res 1 (S35N/S206N)): 431 ± 16 nM
- EC50 ([1]; read-out: EC50 values, DNDI-6174 Res 2 (D231E)): 3950 ± 228 nM
- EC50 ([1]; read-out: EC50 values, DNDI-6174 Res 3 (S207P)): 1500 ± 91 nM
- EC50 ([1]; read-out: EC50 values, DNDI-6174 Res 4 (G31A)): 2700 ± 145 nM
- EC50 ([1]; read-out: EC50 values, DNDI-6174 Res 5 (S206N)): 157 ± 5 nM
- CC50 [2]: > 63 µM
- Microsome predicted in vivo CLplasma [3]: 2.4 mL/min/kg
- microsomal CLint at 0.5 µM ([3]; liver microsomes, pH 7.4, 2 independent experiments, read-out: In vitro Microsome CLint): 10 ± 0.79 µL/min/mg
- EC50 [4]: 5 to 20 µM
- K01 ([5]; Hamsters, 12.5 mg/kg, fitted): 0.321 h⁻¹
- K10 ([5]; Hamsters, 12.5 mg/kg, fitted): 0.336 h⁻¹
- V/F ([5]; Hamsters, 12.5 mg/kg, fitted): 1.57 L/kg
- K01 ([5]; Hamsters, 25 mg/kg, fitted): 0.298 h⁻¹
- K10 ([5]; Hamsters, 25 mg/kg, fitted): 0.295 h⁻¹
- V/F ([5]; Hamsters, 25 mg/kg, fitted): 1.75 L/kg
- K01 ([5]; Hamsters, 50 mg/kg, fitted): 0.660 h⁻¹
- K10 ([5]; Hamsters, 50 mg/kg, fitted): 0.184 h⁻¹
- V/F ([5]; Hamsters, 50 mg/kg, fitted): 1.83 L/kg
- Cmax ([5]; hamster, plasma, po, 3.125 mg/kg, hamsters, 3.125 mg/kg bid, 5 days, simulated): 341 ng/mL
- Cmax ([5]; hamster, plasma, po, 12.5 mg/kg, Hamsters, fitted): 2850 ng/mL
- Cmax ([5]; hamster, plasma, po, 12.5 mg/kg, hamsters, 12.5 mg/kg bid, 5 days, simulated): 3690 ng/mL
- AUC ([5]; hamster, plasma, po, 12.5 mg/kg, hamsters, 12.5 mg/kg bid, 5 days, simulated, read-out: AUC24 ss): 47.6 µg·h/mL
- AUC ([5]; hamster, plasma, po, 12.5 mg/kg, hamsters, 12.5 mg/kg bid, 5 days, simulated, read-out: Cum AUC): 238 µg·h/mL
- Cmax ([5]; hamster, plasma, po, 12.5 mg/kg, hamsters, 12.5 mg/kg qd, 5 days, simulated): 2880 ng/mL
- AUC ([5]; hamster, plasma, po, 12.5 mg/kg, hamsters, 12.5 mg/kg qd, 5 days, simulated, read-out: AUC24 ss): 23.8 µg·h/mL
- AUC ([5]; hamster, plasma, po, 12.5 mg/kg, hamsters, 12.5 mg/kg qd, 5 days, simulated, read-out: Cum AUC): 119 µg·h/mL
- Cmax ([5]; hamster, plasma, po, 25 mg/kg, Hamsters, fitted): 5280 ng/mL
- Cmax at 5 days ([5]; hamster, plasma, po, 25 mg/kg, hamsters, 25 mg/kg qd, 5 days, simulated): 5330 ng/mL
- AUC ([5]; hamster, plasma, po, 25 mg/kg, hamsters, 25 mg/kg qd, 5 days, simulated, read-out: AUC24 ss): 48.6 µg·h/mL
- AUC ([5]; hamster, plasma, po, 25 mg/kg, hamsters, 25 mg/kg qd, 5 days, simulated, read-out: Cum AUC): 243 µg·h/mL
- Cmax ([5]; hamster, plasma, po, 50 mg/kg, Hamsters, fitted): 15600 ng/mL
- Cmax ([5]; hamster, plasma, po, 50 mg/kg, hamsters, 50 mg/kg qd, 5 days, simulated): 17000 ng/mL
- AUC ([5]; hamster, plasma, po, 50 mg/kg, hamsters, 50 mg/kg qd, 5 days, simulated, read-out: AUC24 ss): 148 µg·h/mL
- AUC at 5 days ([5]; hamster, plasma, po, 50 mg/kg, hamsters, 50 mg/kg qd, 5 days, simulated, read-out: Cum AUC): 742 µg·h/mL
- AUC(0-inf) [5, 7]: 23600 ng·h/mL
- CL/F [5, 7]: 8.75 mL/min/kg
- AUC(0-inf) [5, 8]: 48400 ng·h/mL
- CL/F [5, 8]: 8.58 mL/min/kg
- AUC(0-inf) [5, 9]: 140000 ng·h/mL
- CL/F [5, 9]: 5.62 mL/min/kg
- Cmax (unbound) [5, 10]: 0.031 µg/mL
- Cmin [5, 10]: 0.013 µg/mL
- Cmin (unbound) [5, 10]: 1 ng/mL
- AUC24 ss (unbound) [5, 11]: 4.28 µg·h/mL
- Cav ss [5, 11]: 1.98 µg/mL
- Cav ss (unbound) [5, 11]: 0.178 µg/mL
- Cmax (unbound) [5, 11]: 0.332 µg/mL
- Cmin [5, 11]: 0.238 µg/mL
- Cmin (unbound) [5, 11]: 21 ng/mL
- Cum AUC (unbound) [5, 11]: 21.4 µg·h/mL
- AUC24 ss (unbound) [5, 12]: 2.14 µg·h/mL
- Cav ss [5, 12]: 0.991 µg/mL
- Cav ss (unbound) [5, 12]: 0.089 µg/mL
- Cmax (unbound) [5, 12]: 0.259 µg/mL
- Cmin [5, 12]: 0.023 µg/mL
- Cmin (unbound) [5, 12]: 2 ng/mL
- Cum AUC (unbound) [5, 12]: 10.7 µg·h/mL
- AUC24 ss (unbound) [5, 13]: 4.37 µg·h/mL
- Cav ss [5, 13]: 2.02 µg/mL
- Cav ss (unbound) [5, 13]: 0.182 µg/mL
- Cmax (unbound) [5, 13]: 0.480 µg/mL
- Cmin [5, 13]: 0.083 µg/mL
- Cmin (unbound) [5, 13]: 7 ng/mL
- Cum AUC (unbound) [5, 13]: 21.9 µg·h/mL
- AUC24 ss (unbound) [5, 14]: 13.4 µg·h/mL
- Cav ss [5, 14]: 6.19 µg/mL
- Cav ss (unbound) [5, 14]: 0.557 µg/mL
- Cmax (unbound) [5, 14]: 1.53 µg/mL
- Cmin [5, 14]: 0.463 µg/mL
- Cmin (unbound) [5, 14]: 42 ng/mL
- Cum AUC (unbound) [5, 14]: 66.8 µg·h/mL
- genotoxicity, in words [6]: not genotoxic
